Experimental data from patent US8697691B2, “Alkyl 3-((2-amidoethyl)amino)-8-azabicyclo[3.2.1]octane-8-carboxylate analogs as selective M1 agonists and methods of making and using same” (Vanderbilt University, priority 2009, dated 2014).
Read-outs that look alike come from different tables or passages of the source.

Key:
Assay type in all cases: cell-based
human M1 receptor = biological target: T1, human M1 receptor (Homo sapiens, UniProt P11229); test: Calcium mobilization assay, CHO-K1 cells stably expressing hM1 (high throughput, FDSS 6000); conditions: for Emax: CHO-K1, read-out: Efficacy (% Max ACh)
T1 construct: host or cells: CHO-K1
T1 sequence (P11229 1-460): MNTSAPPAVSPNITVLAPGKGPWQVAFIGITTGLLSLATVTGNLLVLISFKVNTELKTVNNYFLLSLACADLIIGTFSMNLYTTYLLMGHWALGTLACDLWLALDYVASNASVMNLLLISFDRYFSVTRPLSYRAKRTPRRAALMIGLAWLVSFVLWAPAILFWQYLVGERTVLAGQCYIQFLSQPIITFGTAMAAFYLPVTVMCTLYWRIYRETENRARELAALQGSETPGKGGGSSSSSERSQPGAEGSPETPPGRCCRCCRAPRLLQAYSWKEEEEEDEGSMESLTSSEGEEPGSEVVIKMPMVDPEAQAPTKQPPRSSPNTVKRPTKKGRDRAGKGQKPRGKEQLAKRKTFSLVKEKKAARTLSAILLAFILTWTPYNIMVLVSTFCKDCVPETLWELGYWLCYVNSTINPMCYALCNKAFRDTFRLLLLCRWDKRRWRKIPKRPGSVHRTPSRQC
Description: Chinese hamster ovary (CHO-K1) cells stably expressing rat (r)M1 were purchased from the American Type Culture Collection and cultured according to their indicated protocol. CHO cells stably expressing human (h)M2, hM3, and hM5 were described previously (Levey et al., 1991); hM1 and hM4 cDNAs were purchased from Missouri S&T cDNA Resource; rM4 cDNA was provided by T. I. Bonner (National Institutes of Health, Bethesda, Md.). hM1, hM4, and rM4 cDNAs were used to stably transfect CHO-K1 cells purchased from the American Type Culture Collection using Lipofectamine2000. To make stable hM2, hM4 and rM4 cell lines for use in calcium mobilization assays, these cells also were stably transfected with a chimeric G-protein (Gqi5) (provided by B. R. Conklin, University of California, San Francisco) using Lipofectamine 2000. rM1, hM3, and hM5 cells were grown in Ham's F-12 medium containing 10% heat-inactivated fetal bovine serum (FBS), 20 mM HEPES, and 50 μg/mL G418 sulfate. hM2-Gqi5 and hM4-Gqi5 cells were grown in the same medium also containing 500 μg/mL Hygromycin B. Stable rM4-Gqi5 cells were grown in DMEM containing 10% heat-inactivated FBS, 20 mM HEPES, 400 μg/mL G418 sulfate, and 500 μg/mL Hygromycin B. The rat M1 Y381A orthosteric mutant receptor cDNA was generated using the Quik-Change site-directed mutagenesis kit (Stratagene) and verified by sequencing. CHO-K1 cells were stably transfected with this cDNA using Lipofectamine2000 and screened for expression based on calcium mobilization in response to the allosteric M1 agonist N-desmethylclozapine.
For high throughput measurement of agonist-evoked increases in intracellular calcium, CHO-K1 cells stably expressing muscarinic receptors were plated in growth medium lacking G418 and hygromycin at 15,000 cells/20 μL/well (hM1, hM2-Gqi5, hM3, hM4-Gq15, and hM5) in Greiner 384-well black-walled, tissue culture (TC)-treated, clear-bottom plates (VWR). Cells were incubated overnight at 37° C. and 5% CO2. The next day, cells were washed using an ELX 405 (BioTek) with three washes (50 μL) of assay buffer then aspirated to 15 μL. Next, 5 μL of 8 μM Fluo-4/acetoxymethyl ester (Invitrogen, Carlsbad, Calif.) prepared as a 2.3 mM stock in DMSO and mixed in a 1:1 ratio with 10% (w/v) Pluronic F-127 and diluted in assay buffer was added to the wells and the cell plates were incubated for 45 min at 37° C. and 5% CO2. Dye was removed by washing with the ELX 405 (three 50 μL washes of assay buffer) then aspirated to 20 μL. Agonist and compound master plates were formatted in an 11 point CRC format (1:3 dilutions) in 100% DMSO with a starting concentration of 10 mM using the BRAVO liquid handler (Agilent). Test compound CRCs were then transferred to daughter plates ([…]) using the Echo acoustic plate reformatter (Labcyte, Sunnyvale, Calif.) and then diluted into assay buffer (40 μL) to a 2× stock using a Thermo Fisher Combi (Thermo Fisher Scientific, Waltham, Mass.). Calcium flux was measured using the Functional Drug Screening System (FDSS) 6000 (Hamamatsu Corporation, Tokyo, Japan) as an increase in the fluorescent static ratio. 20 μL of Agonist Compounds were applied to cells using the automated system of the FDSS 6000 at 4 s into the 300 s protocol and the data were collected at 1 Hz. Concentration-response curves were generated using a four-parameter logistical equation in XLfit curve fitting software (IDBS, Bridgewater, N.J.) for Excel (Microsoft, Redmond, Wash.) or Prism (GraphPad Software, Inc., San Diego, Calif.).

hM2 receptor = hM2 receptor (Homo sapiens, UniProt P08172); test: Calcium mobilization assay, CHO cells stably expressing hM2-Gqi5
hM2 receptor, sequence (P08172 whole entry): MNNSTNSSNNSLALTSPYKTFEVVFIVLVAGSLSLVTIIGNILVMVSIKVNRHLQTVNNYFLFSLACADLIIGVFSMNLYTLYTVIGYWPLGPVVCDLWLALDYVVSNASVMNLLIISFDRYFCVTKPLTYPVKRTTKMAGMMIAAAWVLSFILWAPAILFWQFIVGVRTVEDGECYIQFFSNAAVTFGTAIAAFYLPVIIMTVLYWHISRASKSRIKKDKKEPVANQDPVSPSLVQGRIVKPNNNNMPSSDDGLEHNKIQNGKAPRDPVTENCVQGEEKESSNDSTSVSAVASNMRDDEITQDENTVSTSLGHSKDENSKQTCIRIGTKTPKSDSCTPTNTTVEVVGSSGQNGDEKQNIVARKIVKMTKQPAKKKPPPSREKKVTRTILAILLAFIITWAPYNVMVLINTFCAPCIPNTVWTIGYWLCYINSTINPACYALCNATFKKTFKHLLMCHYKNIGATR
Description: (§1) Chinese hamster ovary (CHO-K1) cells stably expressing rat (r)M1 were purchased from the American Type Culture Collection and cultured according to their indicated protocol. CHO cells stably expressing human (h)M2, hM3, and hM5 were described previously (Levey et al., 1991); hM1 and hM4 cDNAs were purchased from Missouri S&T cDNA Resource; rM4 cDNA was provided by T. I. Bonner (National Institutes of Health, Bethesda, Md.). hM1, hM4, and rM4 cDNAs were used to stably transfect CHO-K1 cells purchased from the American Type Culture Collection using Lipofectamine2000. […]
(§2) For low throughput measurement of agonist-evoked increases in intracellular calcium, CHO-K1 cells stably expressing muscarinic receptors were plated in 100 μL of growth medium at 5×10^4 (rM1, hM3, and hM5) or 6×10^4 cells per well (rM1 Y381A, hM2, and rM4) in Costar 96-well black-walled, tissue culture (TC)-treated, clear-bottom plates (Fisher). […] For calcium fluorescence measurements, CRCs of compounds (50 μl, 2×) were added 19 s after the beginning of data collection via a Flexstation II (Molecular Devices, Sunnyvale, Calif.). Fluorescence imaging continued for a total of 130 s acquisition time using an excitation wavelength of 488 nm, an emission wavelength of 525 nm, and a cutoff wavelength of 515 nm. […]

hM3 receptor = biological target: T2, hM3 receptor (Homo sapiens, UniProt P20309); test: Calcium mobilization assay, CHO cells stably expressing hM3
T2 construct: expressed in transfected cells; host or cells: CHO cells (Levey et al., 1991)
T2 sequence (P20309 whole entry): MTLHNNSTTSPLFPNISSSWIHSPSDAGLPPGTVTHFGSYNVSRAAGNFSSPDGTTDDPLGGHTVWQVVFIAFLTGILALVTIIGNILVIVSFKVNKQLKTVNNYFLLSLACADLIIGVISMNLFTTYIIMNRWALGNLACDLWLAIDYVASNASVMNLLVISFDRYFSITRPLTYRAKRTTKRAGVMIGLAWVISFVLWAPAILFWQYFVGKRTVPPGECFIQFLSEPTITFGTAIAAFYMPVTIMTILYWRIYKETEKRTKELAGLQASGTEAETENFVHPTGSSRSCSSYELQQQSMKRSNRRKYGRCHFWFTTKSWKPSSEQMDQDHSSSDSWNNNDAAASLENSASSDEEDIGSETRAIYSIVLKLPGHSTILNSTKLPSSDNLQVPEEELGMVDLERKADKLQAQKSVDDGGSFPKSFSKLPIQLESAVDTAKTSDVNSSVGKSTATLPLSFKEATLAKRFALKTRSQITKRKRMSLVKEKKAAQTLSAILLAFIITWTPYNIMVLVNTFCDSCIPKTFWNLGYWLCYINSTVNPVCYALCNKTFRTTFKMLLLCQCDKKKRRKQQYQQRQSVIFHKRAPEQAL
Description: as §1, §2

Row | Structure (SMILES) | Emax (human M1 receptor) | EC50 (human M1 receptor; figure legends FIG. 1.0, 1.1, dose response data, read-out: EC50 for hM1) | EC50 (hM2 receptor) | EC50 (hM3 receptor) | EC50 (human M1 receptor) | EC50 (human M1 receptor; human M1, agonist-evoked calcium mobilization in CHO-K1 cells, read-out: Potency (EC50))
1 | CCOC(=O)N1[C@@H]2CC[C@H]1C[C@H](NCCNC(=O)c1ccccc1)C2 [Example 26, ethyl 3-((3-exo)-(2-benzamidoethyl)amino)-8-azabicyclo[3.2.1]octane-8-carboxylate] | 57% | 1200 nM | > 10000 nM | > 10000 nM |  | 
2 | CCOC(=O)N1[C@@H]2CC[C@H]1C[C@@H](NCCNC(=O)c1ccccc1)C2 [Example 27, ethyl 3-((3-endo)-(2-benzamidoethyl)amino)-8-azabicyclo[3.2.1]octane-8-carboxylate] | 37% |  | ~3000 nM | ~10000 nM | 214 nM | 210 nM
